Several values for one entry are separate records, joined by “and”; a condition that tells them apart may be missing. Equal entries are not always repeated.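 Tested at 5 concentrations; 48 h exposure; 96-well plates; endpoints linearly interpolated, else capped at highest concentration. GI50 = concentration required for 50% inhibition of growth. Definition used: TGI = concentration required for complete inhibition of growth.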
Tests used:
Assay in all cases: NCI tumour cell line growth inhibition, 48 h
[1] = test system: EKVX NSCLC
[2] = test system: SK-MEL-5 melanoma
[3] = test system: COLO 205 colon
[4] = test system: HOP-92 NSCLC
[5] = test system: SNB-19 CNS
[6] = test system: MALME-3M melanoma
[7] = test system: ACHN renal
[8] = test system: SW-620 colon
[9] = test system: RXF 393 renal
[10] = test system: KM12 colon

SMILES	TGI [1]	TGI [2]	TGI [3]	TGI [4]	TGI [5]	TGI [6]	TGI [7]	TGI [8]	TGI [9]	TGI [10]	GI50 [1]	GI50 [2]	GI50 [3]	GI50 [4]	GI50 [5]	GI50 [6]	GI50 [7]	GI50 [8]	GI50 [9]	GI50 [10]
O=C(/C=C/c1ccc(Cl)c(Cl)c1)c1ccc2ccccc2c1	> 100 µM	> 100 µM	28.7 µM	> 100 µM	> 100 µM	> 100 µM	> 100 µM	> 100 µM	> 100 µM	> 100 µM										
COc1cc(/C=C/c2ccc(OC)c(O)c2)cc(OC)c1	90 µM	14.4 µM	59.3 µM	29.4 µM	24.1 µM	38 µM	41.2 µM	13.7 µM	3.88 µM	28.3 µM										
CNC(=S)/N=C(\N)N(C)C	> 100 µM	> 100 µM	> 100 µM	> 100 µM	> 100 µM	> 100 µM	> 100 µM	> 100 µM	> 100 µM	> 100 µM										
CCCCC(CC)COC(=O)C[N+](C)(C)CCOC(c1ccccc1)c1ccccc1 (centres undefined)	15.9 µM	3.1 µM	4.12 µM	4.9 µM	3.76 µM	3.09 µM	30.5 µM	4.3 µM	3.34 µM	3.44 µM	3.76 µM	1.73 µM	1.93 µM	1.86 µM	1.85 µM	1.49 µM	15 µM	1.97 µM	1.48 µM	1.78 µM
COc1cc(OC)c(C(=O)/C=C/c2cccc(C(F)(F)F)c2)c(OC)c1	4.3 µM	2.54 µM	2.21 µM	3.58 µM	4.67 µM	8.3 µM	5.17 µM	5.01 µM	2.24 µM	6.42 µM	1.5 µM	1.07 µM	1.06 µM	1.02 µM	1.44 µM	2.38 µM	1.46 µM	1.58 µM	1.03 µM	1.79 µM
COc1cc2[nH]c3c(c2cc1OC)CCN[C@]31CC[C@]2(CC3c4c(cc(OC)c(O)c42)CCN3C)C[C@H]1OC (some centres undefined)	> 100 µM	30.6 µM	27.3 µM	75.7 µM	> 100 µM	36.3 µM	62.4 µM	53.3 µM	18.6 µM	35.6 µM										
CCOC(=O)C1CCN(S(=O)(=O)/N=C2/NC(=O)NC2=C(Cl)Cl)CC1	4.79 µM	4.26 µM	3.83 µM	3.29 µM	5.11 µM	3.48 µM	3.32 µM	4.37 µM	3.06 µM	10.5 µM	1.99 µM	1.98 µM	2.08 µM	1.62 µM	1.84 µM	1.7 µM	1.83 µM	2.09 µM	1.61 µM	0.254 µM
C=C1C(=O)O[C@H]2[C@H]1CC/C(COC(=O)NCCCCNC(=O)OC/C1=C/CC[C@@]3(C)O[C@H]3[C@H]3OC(=O)C(=C)[C@@H]3CC1)=C\CC[C@@]1(C)O[C@@H]21	13.5 µM	11.8 µM	1.8 µM	1.06 µM		2.19 µM	12.9 µM	2.04 µM	3.36 µM	10.5 µM	3.69 µM	3.33 µM	0.466 µM	0.287 µM		0.452 µM	3.44 µM	0.586 µM	1.44 µM	3.18 µM
COc1cc(Cc2nccc3cc(OC)c(OC)cc23)c(C(C)=O)cc1OC	295 µM	139 µM and 486 µM	40.1 µM and 300 µM	267 µM and > 750 µM		64.1 µM and 158 µM	429 µM	300 µM and > 750 µM	300 µM and > 750 µM	300 µM		25.6 µM and 130 µM	5.36 µM	99.3 µM and > 750 µM		72.1 µM and 22.6 µM			> 750 µM	106 µM
COC(=O)C(Cc1nc2ccccc2[nH]c1=O)C(NO)C(=O)Nc1c(Cl)cc([N+](=O)[O-])cc1Cl (centres undefined)	> 100 µM	46.4 µM	> 100 µM	25.7 µM	> 100 µM	> 100 µM	> 100 µM		50.2 µM	> 100 µM										
Cc1nnc(NS(=O)(=O)c2ccc(N=Nc3cc(N=Nc4ccc(S(=O)(=O)Nc5nnc(C)s5)cc4)c4c(NC(=O)C(Cl)Cl)cccc4c3OC(=O)C(Cl)Cl)cc2)s1 (tested in a mixture with another compound)	89.2 µM	75.8 µM	> 100 µM	> 100 µM	> 100 µM	65.3 µM		> 100 µM	55.9 µM	> 100 µM										
COc1cc2ncnc(-n3ncc4cc(NC(=O)Nc5ccccc5)ccc43)c2cc1OC	7.3 µM	21.3 µM	4.53 µM	4.15 µM	17.7 µM		11.1 µM	17.9 µM	2.76 µM	5.27 µM	1.59 µM	5.22 µM	1.32 µM	0.707 µM	2.29 µM		1.63 µM	3.07 µM	1.04 µM	0.207 µM
